Read-outs that look alike come from different tables or passages of the source.
Columns and labels:
[1] = body weight monitoring in tumor-bearing mice; type: in vivo, mouse
[2] = system: LU299 human lung cancer PDX; test: antitumor efficacy, patient-derived LU299 lung cancer xenograft in nu/nu mice; conditions: 33 days
[3] = system: DMS-114 human SCLC xenograft; test: antitumor efficacy, DMS-114 lung cancer xenograft in NMRI nu/nu mice; conditions: for T/C volume: rogaratinib 50 mg/kg BID p.o., docetaxel 30 mg/kg Q7D i.v., carboplatin 80 mg/kg Q7D / paclitaxel 24 mg/kg Q7D i.p., 10 days
LXFL1121 human NSCLC PDX = test: antitumor efficacy, patient-derived LXFL1121 NSCLC xenograft in NMRI nu/nu mice
[4] = system: FGFR1-amplified squamous NSCLC; conditions: initial clinical results; cited from earlier work
p-ERK1/2 in RT-112 cells = test: Western blot, ERK1/2 phosphorylation; type: cell-based, human; conditions: RT-112, 0–10,000 nM
468 kinase targets = test: KINOMEscan profiling, kinase panel; type: binding; conditions: of 403 non-mutant kinases
[5] = system: NCI-H716 human colon cancer xenograft; test: antitumor efficacy, NCI-H716 colorectal xenograft in NMRI nu/nu mice; conditions: 50 mg/kg BID; 1/8 mice
VEGFR3 [6] = target: T1, VEGFR3 (Homo sapiens, UniProt P35916); test: KINOMEscan competition binding
T1 sequence (P35916 25-1363): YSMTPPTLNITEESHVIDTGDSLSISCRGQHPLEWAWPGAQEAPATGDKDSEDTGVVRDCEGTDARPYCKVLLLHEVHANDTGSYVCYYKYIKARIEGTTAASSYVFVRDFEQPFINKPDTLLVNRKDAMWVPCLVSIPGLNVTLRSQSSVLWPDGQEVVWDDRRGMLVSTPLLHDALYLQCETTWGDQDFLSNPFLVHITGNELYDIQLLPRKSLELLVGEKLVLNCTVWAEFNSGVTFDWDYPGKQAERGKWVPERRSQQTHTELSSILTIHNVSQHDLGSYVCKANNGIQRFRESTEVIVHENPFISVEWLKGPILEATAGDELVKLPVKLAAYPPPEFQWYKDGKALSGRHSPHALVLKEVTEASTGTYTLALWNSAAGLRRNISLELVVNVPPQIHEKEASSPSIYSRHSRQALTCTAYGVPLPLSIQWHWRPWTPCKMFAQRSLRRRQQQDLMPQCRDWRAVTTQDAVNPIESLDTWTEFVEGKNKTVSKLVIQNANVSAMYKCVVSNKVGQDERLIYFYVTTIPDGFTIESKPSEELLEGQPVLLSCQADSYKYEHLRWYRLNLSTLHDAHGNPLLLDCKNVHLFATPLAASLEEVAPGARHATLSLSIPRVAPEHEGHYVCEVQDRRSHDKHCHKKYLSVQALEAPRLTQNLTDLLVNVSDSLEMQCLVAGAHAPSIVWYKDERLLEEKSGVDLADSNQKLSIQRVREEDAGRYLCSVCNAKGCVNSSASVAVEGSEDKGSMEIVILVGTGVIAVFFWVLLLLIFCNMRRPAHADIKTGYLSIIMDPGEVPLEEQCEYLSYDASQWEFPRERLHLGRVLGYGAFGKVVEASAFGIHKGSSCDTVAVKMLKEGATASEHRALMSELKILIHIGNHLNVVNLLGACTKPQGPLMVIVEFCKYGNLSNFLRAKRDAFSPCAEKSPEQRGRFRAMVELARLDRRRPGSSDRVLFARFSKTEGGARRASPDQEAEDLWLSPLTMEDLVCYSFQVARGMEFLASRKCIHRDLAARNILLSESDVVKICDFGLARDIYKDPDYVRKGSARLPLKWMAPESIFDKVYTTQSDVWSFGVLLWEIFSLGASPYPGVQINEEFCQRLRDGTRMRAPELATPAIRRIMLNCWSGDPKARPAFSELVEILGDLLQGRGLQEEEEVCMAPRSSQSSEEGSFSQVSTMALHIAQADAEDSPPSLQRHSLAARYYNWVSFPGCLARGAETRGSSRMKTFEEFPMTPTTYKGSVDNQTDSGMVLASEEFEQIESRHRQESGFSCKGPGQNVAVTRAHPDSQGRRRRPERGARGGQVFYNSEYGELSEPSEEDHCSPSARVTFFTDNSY

FGFR2 [7] = target: T2, FGFR2 (Homo sapiens, UniProt P21802); test: radiometric kinase activity assay; type: biochemical
T2 sequence (P21802 481-770 limits assumed): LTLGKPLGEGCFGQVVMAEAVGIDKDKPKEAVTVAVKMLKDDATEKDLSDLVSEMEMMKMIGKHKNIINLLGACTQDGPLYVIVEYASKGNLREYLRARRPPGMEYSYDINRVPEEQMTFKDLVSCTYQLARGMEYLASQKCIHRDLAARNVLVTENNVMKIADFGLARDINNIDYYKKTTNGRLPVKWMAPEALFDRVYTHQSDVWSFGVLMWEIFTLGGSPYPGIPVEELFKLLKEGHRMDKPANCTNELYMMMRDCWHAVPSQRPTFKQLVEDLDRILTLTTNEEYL

[8] = plasma pharmacokinetics in NCI-H716 tumor-bearing NMRI nu/nu mice
C51 colon tumors [9] = test: antitumor efficacy, syngeneic C51 colon cancer model in BALB/cJ mice; conditions: for partial response (PR) rate (RECIST): 2/9 mice
FGFR2 [10] = target: T2, FGFR2; test: KINOMEscan competition binding
[11] = body weight monitoring in tumor-bearing rats; type: in vivo, rat; conditions: C51 model, nude rats, monotherapy
[12] = maximally tolerated dose in Balb/cJ mice; type: in vivo, mouse
[13] = system: pERK1/2 (T202/Y204,T185/Y187) in MFM-223 cells; test: FGF2-induced ERK1/2 phosphorylation, MSD-ELISA; type: cell-based; conditions: Homo sapiens, MFM-223, read-out: IC50 pERK1/2 (T202/Y204,T185/Y187)
VEGF-A-stimulated HUVEC = test: HUVEC growth assay, VEGF-A-stimulated; type: cell-based, human; conditions: for IC50: Homo sapiens, 72 h
[14] = system: p-ERK1/2 in NCI-H716 cells; test: Western blot, ERK1/2 phosphorylation; type: cell-based, human; conditions: NCI-H716, 100 nM
[15] = system: p-FGFR4 in MDA-MB-453 cells; test: Western blot, FGFR4 auto-phosphorylation; type: cell-based, human; conditions: MDA-MB-453, 0–1,000 nM, 2 h
FGF2-stimulated HUVEC = test: HUVEC growth assay, FGF2-stimulated; type: cell-based; conditions: Homo sapiens, 72 h, read-out: IC50 inhibition of FGF2-stimulated growth
[16] = system: pERK1/2 (T202/Y204,T185/Y187) in DMS-114 cells; test: FGF2-induced ERK1/2 phosphorylation, MSD-ELISA; type: cell-based; conditions: Homo sapiens, DMS-114, read-out: IC50 pERK1/2 (T202/Y204,T185/Y187)
[17] = system: pERK1/2 (T202/Y204,T185/Y187) in C51 cells; test: ERK1/2 phosphorylation, MSD-ELISA; type: cell-based; conditions: Mus musculus, read-out: IC50 pERK1/2 (T202/Y204,T185/Y187)
CSF1R [18] = target: T3, CSF1R (Homo sapiens, UniProt P07333); test: kinase inhibition assay; type: biochemical
T3 sequence (P07333 20-972): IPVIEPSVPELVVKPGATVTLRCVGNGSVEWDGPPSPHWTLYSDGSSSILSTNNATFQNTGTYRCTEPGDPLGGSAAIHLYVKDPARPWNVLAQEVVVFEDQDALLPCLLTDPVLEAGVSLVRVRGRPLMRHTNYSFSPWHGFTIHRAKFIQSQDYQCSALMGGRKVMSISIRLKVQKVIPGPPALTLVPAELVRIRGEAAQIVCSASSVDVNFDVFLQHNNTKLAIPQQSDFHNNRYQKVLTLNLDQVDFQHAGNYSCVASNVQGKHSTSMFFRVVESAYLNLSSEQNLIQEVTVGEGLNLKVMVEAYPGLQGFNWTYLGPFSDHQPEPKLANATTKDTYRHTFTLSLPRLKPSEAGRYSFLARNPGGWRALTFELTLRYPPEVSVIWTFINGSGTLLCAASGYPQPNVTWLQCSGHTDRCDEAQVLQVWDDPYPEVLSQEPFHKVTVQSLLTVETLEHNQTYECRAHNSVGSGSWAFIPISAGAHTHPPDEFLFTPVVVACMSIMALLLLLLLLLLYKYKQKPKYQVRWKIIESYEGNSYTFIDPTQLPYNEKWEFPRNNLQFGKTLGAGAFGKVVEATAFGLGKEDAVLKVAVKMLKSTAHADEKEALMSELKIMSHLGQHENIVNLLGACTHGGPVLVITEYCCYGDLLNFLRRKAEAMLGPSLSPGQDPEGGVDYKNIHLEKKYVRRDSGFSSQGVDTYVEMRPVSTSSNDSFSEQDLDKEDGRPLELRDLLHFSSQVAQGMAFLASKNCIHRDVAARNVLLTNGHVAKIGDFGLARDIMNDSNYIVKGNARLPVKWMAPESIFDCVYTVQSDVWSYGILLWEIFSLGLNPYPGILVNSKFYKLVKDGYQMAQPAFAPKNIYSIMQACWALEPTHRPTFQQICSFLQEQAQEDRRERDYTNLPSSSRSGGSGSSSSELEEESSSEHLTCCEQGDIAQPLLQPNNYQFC

[19] = system: p-ERK1/2 in MDA-MB-453 cells; test: Western blot, ERK1/2 phosphorylation; type: cell-based, human; conditions: MDA-MB-453, 0–1,000 nM, 2 h
C51 colon tumors [20] = test: antitumor efficacy, C51 colon cancer model in nude rats
VEGFR1 = VEGFR1 (Homo sapiens, UniProt P17948); test: KINOMEscan competition binding
VEGFR1, sequence (P17948 27-1338): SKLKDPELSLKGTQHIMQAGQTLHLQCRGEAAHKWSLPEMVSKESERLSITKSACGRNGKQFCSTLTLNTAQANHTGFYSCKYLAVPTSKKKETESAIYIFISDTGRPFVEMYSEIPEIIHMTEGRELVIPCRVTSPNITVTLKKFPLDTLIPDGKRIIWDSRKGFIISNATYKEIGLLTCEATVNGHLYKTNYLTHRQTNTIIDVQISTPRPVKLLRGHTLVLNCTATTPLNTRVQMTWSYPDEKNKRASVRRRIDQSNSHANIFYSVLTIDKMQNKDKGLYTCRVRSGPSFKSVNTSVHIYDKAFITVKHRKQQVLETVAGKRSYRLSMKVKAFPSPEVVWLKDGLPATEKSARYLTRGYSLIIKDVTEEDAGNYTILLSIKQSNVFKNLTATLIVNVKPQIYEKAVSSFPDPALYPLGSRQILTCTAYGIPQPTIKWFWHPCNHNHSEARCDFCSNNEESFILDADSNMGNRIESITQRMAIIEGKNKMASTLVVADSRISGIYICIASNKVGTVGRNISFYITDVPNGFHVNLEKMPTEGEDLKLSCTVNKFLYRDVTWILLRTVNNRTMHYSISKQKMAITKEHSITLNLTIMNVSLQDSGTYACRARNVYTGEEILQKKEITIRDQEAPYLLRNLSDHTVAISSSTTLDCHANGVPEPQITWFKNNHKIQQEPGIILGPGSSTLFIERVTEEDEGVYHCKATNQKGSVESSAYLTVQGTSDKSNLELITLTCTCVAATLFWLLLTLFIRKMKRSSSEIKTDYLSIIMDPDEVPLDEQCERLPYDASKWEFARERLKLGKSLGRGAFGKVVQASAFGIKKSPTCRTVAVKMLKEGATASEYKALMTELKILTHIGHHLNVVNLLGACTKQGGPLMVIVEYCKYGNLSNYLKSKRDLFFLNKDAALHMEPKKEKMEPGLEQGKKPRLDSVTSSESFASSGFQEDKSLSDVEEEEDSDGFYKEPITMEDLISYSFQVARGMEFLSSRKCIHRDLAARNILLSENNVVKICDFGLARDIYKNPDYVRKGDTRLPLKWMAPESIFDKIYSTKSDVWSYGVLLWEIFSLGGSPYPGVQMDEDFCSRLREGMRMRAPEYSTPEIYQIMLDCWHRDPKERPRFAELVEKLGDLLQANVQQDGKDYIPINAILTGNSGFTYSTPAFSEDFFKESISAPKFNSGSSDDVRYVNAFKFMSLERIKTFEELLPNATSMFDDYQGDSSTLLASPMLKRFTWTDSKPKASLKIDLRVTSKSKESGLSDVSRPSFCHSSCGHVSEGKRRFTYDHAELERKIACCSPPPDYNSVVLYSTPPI

VEGFR3 [21] = target: T1, VEGFR3; test: kinase inhibition assay; type: biochemical
CSF1R [22] = target: T3, CSF1R; test: KINOMEscan competition binding; conditions: 100 nM rogaratinib
[23] = system: p-ERK1/2 in NCI-H520 cells; test: Western blot, ERK1/2 phosphorylation; type: cell-based, human; conditions: NCI-H520, 0–10,000 nM
77 non-kinase targets = test: PanLabs Safety screen, whole panel; conditions: 10 µM
[24] = system: p-ERK1/2 in UM-UC-3 cells; test: Western blot, ERK1/2 phosphorylation; type: cell-based, human; conditions: UM-UC-3, 0–10,000 nM
[25] = system: p-FGFR2 and p-ERK1/2 in NCI-H716 tumors; test: PK/PD, phosphorylation of FGFR2 and ERK1/2 in NCI-H716 tumor tissue; type: in vivo, mouse
TIE2 = TIE2 (Homo sapiens, UniProt Q02763); test: kinase inhibition assay; type: biochemical
TIE2, sequence (Q02763 23-1124): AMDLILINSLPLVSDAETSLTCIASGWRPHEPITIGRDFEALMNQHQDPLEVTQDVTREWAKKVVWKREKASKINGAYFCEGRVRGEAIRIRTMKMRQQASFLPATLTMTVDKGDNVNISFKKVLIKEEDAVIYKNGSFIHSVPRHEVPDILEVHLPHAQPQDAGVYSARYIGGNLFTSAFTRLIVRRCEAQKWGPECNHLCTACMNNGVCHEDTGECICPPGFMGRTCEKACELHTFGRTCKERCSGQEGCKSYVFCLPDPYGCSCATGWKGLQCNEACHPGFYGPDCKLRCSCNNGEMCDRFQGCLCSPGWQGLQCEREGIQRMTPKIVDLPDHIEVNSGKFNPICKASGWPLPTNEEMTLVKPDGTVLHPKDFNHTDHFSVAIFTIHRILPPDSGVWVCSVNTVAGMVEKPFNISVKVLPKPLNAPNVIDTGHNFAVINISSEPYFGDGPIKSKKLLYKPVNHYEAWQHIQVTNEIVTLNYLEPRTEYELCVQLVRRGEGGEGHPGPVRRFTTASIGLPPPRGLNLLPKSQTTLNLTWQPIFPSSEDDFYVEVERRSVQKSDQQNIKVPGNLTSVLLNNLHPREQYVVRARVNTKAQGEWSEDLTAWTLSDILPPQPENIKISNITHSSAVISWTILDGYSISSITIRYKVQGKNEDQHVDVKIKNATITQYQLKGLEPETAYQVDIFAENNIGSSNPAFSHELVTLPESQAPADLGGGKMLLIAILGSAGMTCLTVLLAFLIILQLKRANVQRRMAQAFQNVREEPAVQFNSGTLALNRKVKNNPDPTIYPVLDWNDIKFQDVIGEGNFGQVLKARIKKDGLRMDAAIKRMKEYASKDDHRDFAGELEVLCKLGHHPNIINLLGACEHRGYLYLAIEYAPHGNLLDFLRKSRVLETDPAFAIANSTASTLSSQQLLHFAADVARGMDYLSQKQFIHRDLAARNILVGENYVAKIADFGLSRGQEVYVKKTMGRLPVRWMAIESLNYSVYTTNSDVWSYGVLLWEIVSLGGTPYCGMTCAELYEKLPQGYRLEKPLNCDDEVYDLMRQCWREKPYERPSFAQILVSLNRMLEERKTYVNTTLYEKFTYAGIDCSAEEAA

[26] = system: p-FGFR2 in NCI-H716 cells; test: Western blot, FGFR2 auto-phosphorylation; type: cell-based, human; conditions: NCI-H716, 100 nM
[27] = system: p-ERK1/2 in NCI-H1581 cells; test: Western blot, ERK1/2 phosphorylation; type: cell-based, human; conditions: NCI-H1581, 0–10,000 nM

CC(=O)O[C@@]12CO[C@@H]1C[C@H](O)[C@@]1(C)C(=O)[C@H](O)C3=C(C)[C@@H](OC(=O)[C@H](O)[C@@H](NC(=O)OC(C)(C)C)c4ccccc4)C[C@@](O)([C@@H](OC(=O)c4ccccc4)[C@H]21)C3(C)C [docetaxel, reference compound]
maximum body weight loss ([1]; DMS-114 model): 2.4% | maximum body weight losses ([1]; LU299 model): 14.1% | PRs (RECIST) ([2]; rogaratinib 50 mg/kg BID, docetaxel Q7D i.v., n=10): 60% | T/C volume [3]: 0.27 | PR rate ([3]; rogaratinib 50 mg/kg BID, docetaxel 30 mg/kg Q7D, carboplatin 80 mg/kg Q7D / paclitaxel 24 mg/kg Q7D): 40% | tumor response post-treatment (LXFL1121 human NSCLC PDX; drug-free observation period after treatment): tumor regrowth was observed

CCN1CCN(c2ccc(Nc3cc(N(C)C(=O)Nc4c(Cl)c(OC)cc(OC)c4Cl)ncn3)cc2)CC1 [BGJ398, 3‐(2,6‐dichloro‐3,5‐dimethoxy‐phenyl)‐1‐{6‐[4‐(4‐ethyl‐piperazin‐1‐yl)‐phenylamino]‐pyrimidin‐4‐yl}‐1‐methyl‐urea]
response rate [4]: 11%

COCc1c(-c2cc3cc(C)cc(OC)c3s2)c2c(N)ncnn2c1CN1CCNC(=O)C1 [rogaratinib, 4‐{[4‐amino‐6‐(methoxymethyl)‐5‐(7‐methoxy‐5‐methyl‐1‐benzothiophen‐2‐yl)pyrrolo[2,1‐f][1,2,4]triazin‐7‐yl]methyl}piperazin‐2‐one]
inhibition of ERK1/2 phosphorylation (p-ERK1/2 in RT-112 cells): potent inhibition | number of additional kinases besides FGFR1-4 with competition binding >65% (468 kinase targets; 100 nM rogaratinib): 4 | number of additional kinases besides FGFR1-4 with competition binding >65% (468 kinase targets; 1 μM rogaratinib): 18 | partial responses (PR) [5]: 12.5% | Kd (VEGFR3 [6]): 150 nM | IC50 (FGFR2 [7]): < 1 nM | unbound Cmax concentration in plasma ([8]; single dose 35 mg/kg after 10-day drug-free period): 123 nM | unbound Cmax concentration in plasma ([8]; single dose 50 mg/kg after 10-day drug-free period): 294 nM | unbound Cmax concentration in plasma ([8]; single dose 65 mg/kg after 10-day drug-free period): 357 nM | antitumor efficacy (C51 colon tumors [9]; 25 mg/kg QD p.o., 13 days): not efficacious | partial response (PR) rate (RECIST) (C51 colon tumors [9]; 50 mg/kg QD): 22% | stable disease (SD) rate (RECIST) (C51 colon tumors [9]; 75 mg/kg QD, 1/9 mice): 11% | partial response (PR) rate (RECIST) (C51 colon tumors [9]; 75 mg/kg QD): 22% | Kd (FGFR2 [10]): 5 nM | body weight losses [11]: ≤ 10% | maximally tolerated dose ([12]; BID): 50 mg/kg | maximally tolerated dose ([12]; QD): 75 mg/kg | IC50 [13]: 11 nM | IC50 VEGF-A-stimulated growth higher than FGF2-stimulated growth (VEGF-A-stimulated HUVEC; HUVEC): 28 fold | IC50 (VEGF-A-stimulated HUVEC; read-out: −logIC50 inhibition of VEGF-A-stimulated growth (converted)): 501 nM | IC50 (VEGF-A-stimulated HUVEC; HUVEC, read-out: IC50 inhibition of VEGF-A-stimulated growth): 453 nM | phosphorylation of ERK1/2 [14]: effectively inhibited | auto-phosphorylation of FGFR4 [15]: inhibited auto‐phosphorylation of FGFR4 | IC50 (FGF2-stimulated HUVEC): 16 nM | body weight losses ([1]; C51 model, mice, monotherapy): ≤ 10% | maximum body weight loss ([1]; DMS-114 model): 5% | body weight losses ([1]; LU299 PDX model): ≤ 10% | body weight losses ([1]; LXFL1121 PDX model): ≤ 10% | maximum body weight loss ([1]; NCI-H716 model): 5.2% | IC50 [16]: 20 nM | T/C volume ([2]; 50 mg/kg BID p.o.): 0.33 | IC50 [17]: 280 nM | T/C volume [3]: 0.34 | IC50 (CSF1R [18]): 166 nM | ERK1/2 phosphorylation [19]: preventing ERK1/2 phosphorylation in the same concentration range | complete responses (CR) (RECIST) (C51 colon tumors [20]; 10 mg/kg QD, 2/8): 25% | stable disease (SD) (RECIST) (C51 colon tumors [20]; 50 mg/kg QD, 1/8): 12.5% | complete responses (CR) (RECIST) (C51 colon tumors [20]; 50 mg/kg QD, 3/8): 37.5% | T/C volume (LXFL1121 human NSCLC PDX; 50 mg/kg BID p.o., 22 days): 0.26 | Kd (VEGFR1): 190 nM | binding affinity to VEGFRs lower compared to FGFR1 (VEGFR1; VEGFR1, VEGFR3 vs FGFR1 Kd): about 100 fold | IC50 (VEGFR3 [21]): 130 nM | inhibition of binding to CSF1R in KINOMEscan profiling (CSF1R [22]): strong inhibition | inhibition of ERK1/2 phosphorylation [23]: less sensitive | number of significant hits in a set of 77 non-kinase targets (77 non-kinase targets): 3 | inhibition of ERK1/2 phosphorylation [24]: less sensitive | FGFR2 and ERK1/2 phosphorylation levels in tumor ([25]; 24-h time point after single dose 35, 50 or 65 mg/kg): returned to levels similar to the vehicle control | FGFR2 and ERK1/2 phosphorylation levels in tumor ([25]; for at least five hours after single dose 35, 50 or 65 mg/kg): strong inhibition of FGFR signaling | IC50 (TIE2): 1300 nM | auto-phosphorylation of FGFR2 [26]: effectively inhibited | inhibition of ERK1/2 phosphorylation [27]: potent inhibition
